From ChEMBL document CHEMBL3882726, “Pyrimidine Derivatives As Kinase Modulators and Method of Use” (2008)

Molecular target: Insulin-like growth factor 1 receptor (Homo sapiens, UniProt P08069)
Assay: Inhibition of human IGF1R kinase domain (M954 to C1367 residues) tri-phosphorylated enzyme form expressed in baculovirus based expression system using poly-EY peptide incubated for 2 hrs by luciferase-luciferin coupled chemiluminescent assay

Sequence of Insulin-like growth factor 1 receptor (P08069 31-736 limits assumed): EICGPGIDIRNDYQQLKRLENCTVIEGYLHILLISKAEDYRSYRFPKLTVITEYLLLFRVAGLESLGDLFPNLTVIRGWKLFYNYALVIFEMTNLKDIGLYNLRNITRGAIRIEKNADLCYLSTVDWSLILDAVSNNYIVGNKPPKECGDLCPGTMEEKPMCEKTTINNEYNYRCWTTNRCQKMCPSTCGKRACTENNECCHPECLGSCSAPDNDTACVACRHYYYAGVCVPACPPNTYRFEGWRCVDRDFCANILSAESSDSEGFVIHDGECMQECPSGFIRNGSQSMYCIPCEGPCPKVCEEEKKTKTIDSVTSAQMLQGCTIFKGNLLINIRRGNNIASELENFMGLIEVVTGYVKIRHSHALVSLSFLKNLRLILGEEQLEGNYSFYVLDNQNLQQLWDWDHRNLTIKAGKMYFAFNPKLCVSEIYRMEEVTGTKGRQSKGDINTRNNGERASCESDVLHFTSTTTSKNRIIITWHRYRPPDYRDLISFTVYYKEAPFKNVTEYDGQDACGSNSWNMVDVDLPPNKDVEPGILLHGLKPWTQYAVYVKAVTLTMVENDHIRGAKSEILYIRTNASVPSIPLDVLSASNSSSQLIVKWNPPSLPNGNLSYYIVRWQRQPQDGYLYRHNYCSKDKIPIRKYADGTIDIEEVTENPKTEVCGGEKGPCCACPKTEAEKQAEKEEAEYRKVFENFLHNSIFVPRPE
Sequence of Insulin-like growth factor 1 receptor (P08069 741-1367 limits assumed): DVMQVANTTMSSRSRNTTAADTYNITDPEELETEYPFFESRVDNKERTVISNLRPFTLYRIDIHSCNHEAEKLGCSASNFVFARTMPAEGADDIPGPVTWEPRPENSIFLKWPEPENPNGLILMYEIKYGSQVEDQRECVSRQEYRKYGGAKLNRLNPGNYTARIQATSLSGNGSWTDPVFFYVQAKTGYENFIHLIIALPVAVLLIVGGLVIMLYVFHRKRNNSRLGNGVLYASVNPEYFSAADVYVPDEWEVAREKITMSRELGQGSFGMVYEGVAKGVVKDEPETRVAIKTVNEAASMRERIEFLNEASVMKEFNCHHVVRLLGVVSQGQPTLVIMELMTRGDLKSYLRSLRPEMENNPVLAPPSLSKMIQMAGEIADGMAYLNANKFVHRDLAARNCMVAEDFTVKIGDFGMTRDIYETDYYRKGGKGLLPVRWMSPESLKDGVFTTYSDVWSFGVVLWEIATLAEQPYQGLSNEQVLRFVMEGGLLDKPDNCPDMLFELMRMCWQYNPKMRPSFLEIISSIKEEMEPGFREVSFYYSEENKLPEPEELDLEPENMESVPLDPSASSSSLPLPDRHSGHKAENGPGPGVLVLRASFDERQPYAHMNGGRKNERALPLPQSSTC

IC50: ≥ 5 µM
Compound: COc1cc(Nc2nc(C)cc(Nc3cc(C4CC4)n[nH]3)n2)cc([N+](=O)[O-])c1
